Source: patent publication US11999727B2 (Tango Therapeutics, Inc., priority 2020, dated 2024)

What was measured:
[1] = test system: HAP1 MTAP-intact cell line; test: SDMA in-cell western assay, HAP1 MTAP-intact; assay type: cell-based; conditions: Homo sapiens, HAP1, SDMA in-cell western, HAP1 MTAP-intact; read-out: MTAP HAP1 intact IC50
Summary of the method: (§1)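 Readout: in-cell western detection of SDMA. Cells: HAP1 expressing endogenous MTAP and an MTAP-null HAP1 counterpart. Output: IC50.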

[2] = test system: HAP1 MTAP-deleted cell line; test: Viability assay, MTAP-deleted cell line; assay type: cell-based; conditions: Homo sapiens, HAP1, viability assay, MTAP-deleted cell line; read-out: HAP1 MTAP deleted viability
Text: Table 1 additionally indicates IC50 values in a viability assay for the MTAP-deleted cell line (column 10), indicating the effect of treatment with compound on cell survival.

PRMT5 [3] = biological target: T1, PRMT5 (Homo sapiens, UniProt O14744); test: PRMT5 biochemical IC50 assay with SAM as cofactor; conditions: PRMT5, SAM as cofactor; read-out: SAM IC50
T1 construct: purchased Viva (custom protein)
T1 sequence (O14744 whole entry): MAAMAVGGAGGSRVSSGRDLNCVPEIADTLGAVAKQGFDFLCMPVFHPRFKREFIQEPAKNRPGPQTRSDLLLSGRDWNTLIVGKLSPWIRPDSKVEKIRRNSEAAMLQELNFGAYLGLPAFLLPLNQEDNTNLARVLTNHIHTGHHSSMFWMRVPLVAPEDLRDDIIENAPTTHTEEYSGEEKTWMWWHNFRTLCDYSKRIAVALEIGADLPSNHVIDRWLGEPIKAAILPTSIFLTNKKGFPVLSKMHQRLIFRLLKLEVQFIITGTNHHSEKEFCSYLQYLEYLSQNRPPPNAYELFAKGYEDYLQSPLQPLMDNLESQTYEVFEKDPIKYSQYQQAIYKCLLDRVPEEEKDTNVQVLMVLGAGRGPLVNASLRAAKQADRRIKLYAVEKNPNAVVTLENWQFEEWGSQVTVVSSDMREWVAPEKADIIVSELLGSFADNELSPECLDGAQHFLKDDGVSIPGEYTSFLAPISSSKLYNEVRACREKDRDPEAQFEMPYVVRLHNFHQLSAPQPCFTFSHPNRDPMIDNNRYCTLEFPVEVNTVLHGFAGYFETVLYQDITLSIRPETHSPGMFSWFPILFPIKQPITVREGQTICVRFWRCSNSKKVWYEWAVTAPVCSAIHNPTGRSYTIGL
T1 sequence (Q9BQA1 whole entry partner): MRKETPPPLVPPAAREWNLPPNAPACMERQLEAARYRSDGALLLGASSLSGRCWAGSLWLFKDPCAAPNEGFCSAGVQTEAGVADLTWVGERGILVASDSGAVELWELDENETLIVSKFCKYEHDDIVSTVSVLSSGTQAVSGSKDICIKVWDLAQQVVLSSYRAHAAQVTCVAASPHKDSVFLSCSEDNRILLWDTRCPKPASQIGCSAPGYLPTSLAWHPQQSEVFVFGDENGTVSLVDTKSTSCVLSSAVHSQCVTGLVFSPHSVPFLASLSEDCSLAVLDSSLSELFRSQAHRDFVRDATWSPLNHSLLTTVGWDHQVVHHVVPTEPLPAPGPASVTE

PRMT5 [4] = biological target: T1, PRMT5; test: PRMT5 biochemical IC50 assay with MTA as cofactor; conditions: PRMT5, MTA as cofactor; read-out: MTA IC50
PRMT5 [5] = biological target: T1, PRMT5; test: PRMT5 biochemical IC50 assay with no cofactor; conditions: PRMT5, no cofactor; read-out: No Cofactor/rel IC50
Text: Table 1 indicates IC50 values (μM) against PRMT5 for exemplary compounds in the presence of SAM as cofactor, with no cofactor, and with MTA as cofactor, respectively (columns 4-6). […] Ki values can be calculated from the IC50 values as described in the Examples section. As detailed in the Examples section, for the assay performed in the presence of SAM, IC50=Ki×1.5 (Ki=IC50/1.5).

[6] = test system: HAP1 MTAP-deleted cell line; test: SDMA in-cell western assay, HAP1 MTAP-deleted; assay type: cell-based; conditions: for IC50: Homo sapiens, HAP1, SDMA in-cell western, HAP1 MTAP-deleted, read-out: HAP 1 MTAP deleted IC50; for MTAP intact/deleted ratio: IC50 ratio HAP1 MTAP-intact / HAP1 MTAP-deleted, SDMA in-cell western
Summary of the method: as §1

SMILES	IC50 [1] [nM]	IC50 (PRMT5 [3]) [nM]	IC50 (PRMT5 [4]) [nM]	IC50 (PRMT5 [5]) [nM]	IC50 [6] [nM]	IC50 [2] [µM]	MTAP intact/deleted ratio [6]
COc1ncc(NC(=O)C(=O)N2C[C@H](C)CC[C@H]2c2ccc3[nH]c(C)nc3c2)cc1C(N)=O (single isomer, unassigned) [Compound 917]	> 1000	50 to 500	< 50	< 50	< 100	1 to 10	A (an IC50 ratio greater than or equal to 10 fold)
CCc1cc(NC(=O)C(=O)N2C[C@H](C)CC[C@H]2c2ccc(NC(C)=O)nc2)cnc1N (single isomer, unassigned) [Compound 921]	> 1000	> 500	> 500	> 500	> 1000	> 10	B (an IC50 ratio greater than or equal to 3 fold but lower than 10 fold)
COc1ncc(NC(=O)C(=O)N2C[C@@H](C)CC[C@@H]2c2ccc3[nH]c(C)nc3c2)cc1C(N)=O (single isomer, unassigned) [Compound 924]	> 1000	> 500	> 500	> 500	> 1000	> 10	B (an IC50 ratio greater than or equal to 3 fold but lower than 10 fold)
CCc1cc(NC(=O)C(=O)N2C[C@@H](C)CC[C@@H]2c2ccc(NC(C)=O)nc2)cnc1N (single isomer, unassigned) [Compound 925]	100 to 1000	50 to 500	< 50	< 50	< 100	< 1	A (an IC50 ratio greater than or equal to 10 fold)
CC(=O)Nc1ccc([C@@H]2CC[C@@H](C)CN2C(=O)C(=O)Nc2cnc(N)c(C)c2)cn1 (single isomer, unassigned) [Compound 927]	> 1000	> 500	> 500	> 500	> 1000	> 10	C (an IC50 ratio of less than 3 fold)
CCc1cc(NC(=O)C(=O)N2C[C@@H](C)CC[C@@H]2c2ccc3cnccc3c2)cnc1N (single isomer, unassigned) [Compound 929]	> 1000	> 500	> 500	> 500	100 to 1000	1 to 10	A (an IC50 ratio greater than or equal to 10 fold)
CCc1cc(NC(=O)C(=O)N2C[C@H](C)CC[C@H]2c2ccn(-c3cc[nH]n3)n2)cnc1N (single isomer, unassigned) [Compound 931]	100 to 1000	50 to 500	< 50	50 to 500	< 100	< 1	A (an IC50 ratio greater than or equal to 10 fold)
COc1ncc(NC(=O)C(=O)N2C[C@H](C)CC[C@H]2c2ccc3cnccc3c2)cc1C(N)=O (single isomer, unassigned) [Compound 933]	> 1000	> 500	> 500	> 500	> 1000	> 10	B (an IC50 ratio greater than or equal to 3 fold but lower than 10 fold)
CCc1cc(NC(=O)C(=O)N2C[C@H](C)C(F)(F)C[C@H]2c2ccc(C)nc2)cnc1N (single isomer, unassigned) [Compound 935]	> 1000	> 500	> 500	> 500	> 1000	> 10	C (an IC50 ratio of less than 3 fold)
COc1ncc(NC(=O)C(=O)N2C[C@H](C)C(F)(F)C[C@H]2c2ccc(C)nc2)cc1C(N)=O (single isomer, unassigned) [Compound 936]	> 1000	> 500	> 500	> 500	> 1000	> 10	C (an IC50 ratio of less than 3 fold)
C[C@H]1CC[C@H](c2cn[nH]c2)N(C(=O)C(=O)Nc2cncc(C(N)=O)c2)C1 (single isomer, unassigned) [Compound 942]	> 1000	50 to 500	< 50	50 to 500	100 to 1000	> 10	A (an IC50 ratio greater than or equal to 10 fold)
C[C@@H]1CC[C@@H](c2cc3cn[nH]c3s2)N(C(=O)C(=O)Nc2cncc(C(N)=O)c2)C1 (single isomer, unassigned) [Compound 943, 5-(2-(5-methyl-2-(1H-thieno[2,3-c]pyrazol-5-yl)piperidin-1-yl)-2-oxoacetamido)nicotinamide]	100 to 1000	50 to 500	< 50	< 50	< 100	< 1	A (an IC50 ratio greater than or equal to 10 fold)

Further lines, with some results ahead:

IC50 [1] [nM]	IC50 (PRMT5 [3]) [nM]	IC50 (PRMT5 [4]) [nM]	IC50 (PRMT5 [5]) [nM]	IC50 [6] [nM]	SMILES	IC50 [2] [µM]	MTAP intact/deleted ratio [6]
> 1000	50 to 500	< 50	50 to 500	< 100	COc1ncc(NC(=O)C(=O)N2C[C@@H](C)CC[C@@H]2c2cccc3[nH]ncc23)cc1C(N)=O (single isomer, unassigned) [Compound 918]	< 1	A (an IC50 ratio greater than or equal to 10 fold)
100 to 1000	50 to 500	< 50	< 50	< 100	CCc1cc(NC(=O)C(=O)N2C[C@H](C)CC[C@H]2c2ccc3cnccc3c2)cnc1N (single isomer, unassigned) [Compound 919]	< 1	A (an IC50 ratio greater than or equal to 10 fold)
> 1000	> 500	> 500	> 500	> 1000	COc1ncc(NC(=O)C(=O)N2C[C@H](C)CC[C@H]2c2cccc3[nH]ncc23)cc1C(N)=O (single isomer, unassigned) [Compound 926]	> 10	C (an IC50 ratio of less than 3 fold)
> 1000	50 to 500	< 50	< 50	< 100	CCc1cc(NC(=O)C(=O)N2C[C@@H](C)CC[C@@H]2c2cccc3[nH]ncc23)cnc1N (single isomer, unassigned) [Compound 928]	< 1	A (an IC50 ratio greater than or equal to 10 fold)
> 1000	50 to 500	< 50	50 to 500	< 100	COc1ncc(NC(=O)C(=O)N2C[C@H](C)CC[C@H]2c2ccc(NC(C)=O)nc2)cc1C(N)=O (single isomer, unassigned) [Compound 930]	1 to 10	A (an IC50 ratio greater than or equal to 10 fold)
> 1000	50 to 500	< 50	50 to 500	100 to 1000	CC(=O)Nc1ccc([C@@H]2CC[C@@H](C)CN2C(=O)C(=O)Nc2cncc(C(N)=O)c2)cn1 (single isomer, unassigned) [Compound 934]	> 10	A (an IC50 ratio greater than or equal to 10 fold)
100 to 1000	50 to 500	< 50	< 50	< 100	Cc1cc(NC(=O)C(=O)N2C[C@@H](C)CC[C@@H]2c2cn[nH]c2)cnc1N (single isomer, unassigned) [Compound 941]	1 to 10	B (an IC50 ratio greater than or equal to 3 fold but lower than 10 fold)
> 1000	> 500	> 500	> 500	> 1000	Cc1ccc([C@@H]2CC(F)(F)[C@@H](C)CN2C(=O)C(=O)Nc2cnc(N)c(C)c2)cn1 (single isomer, unassigned) [Compound 944]	> 10	C (an IC50 ratio of less than 3 fold)
> 1000	50 to 500	< 50	50 to 500	< 100	COc1ncc(NC(=O)C(=O)N2C[C@@H](C)CC[C@@H]2c2cc(Cl)cc(Cl)c2)cc1C(N)=O (single isomer, unassigned) [Compound 945]	1 to 10	A (an IC50 ratio greater than or equal to 10 fold)
> 1000	> 500	> 500	> 500	> 1000	Cc1ccc([C@@H]2CC(F)(F)[C@@H](C)CN2C(=O)C(=O)Nc2cncc(C(N)=O)c2)cn1 (single isomer, unassigned) [Compound 946]	> 10	B (an IC50 ratio greater than or equal to 3 fold but lower than 10 fold)
